Measurements taken from article PMC4140284, “Human UTY(KDM6C) Is a Male-specific N^ϵ-Methyl Lysyl Demethylase” (The Journal of Biological Chemistry, 2014).

Key:
UTY(KDM6C) [1] = test: Inhibition of H3K27Me3 peptide demethylation, UTY(KDM6C); type: biochemical, human; conditions: 10 μM inhibitor, 15 min preincubation, 20 min at 37 °C
Method: (§1) Reaction components were premixed in two batches ((i) enzyme, Fe(II), and ascorbate and (ii) 2OG and peptide), and reactions were initiated by mixing the enzyme and substrate mix. Reactions were incubated at 37 °C for the indicated times before being quenched with methanol in a 1:1 ratio.
(§2) For inhibition assays, the same enzyme/Fe(II)/ascorbate mixture was preincubated with 10 μM inhibitor for 15 min before the reaction was initiated by the addition of the peptide substrate solution. Reactions were quenched with 1:1 methanol after 20 min at 37 °C.
(§3) Product formation was assessed by MALDI-TOF MS. One microliter of quenched reaction was mixed with 1 μl of α-cyano-4-hydroxycinnamic acid and spotted onto a MALDI-TOF plate for analysis using a MALDI micro-MX mass spectrometer (Waters) in reflectron positive ion mode with pulse voltage 1250 V, detector voltage 2750 V, and mass suppression 1000 Da. Data were analyzed using MassLynx version 4.0. For inhibitor assays, inhibition levels were measured relative to an inhibitor-free reaction.

KDM6A [2] = target: T1, KDM6A (Homo sapiens, UniProt O15550); test: Inhibition of H3K27Me3 peptide demethylation, KDM6A; type: biochemical; conditions: 10 μM inhibitor, 15 min preincubation, 20 min at 37 °C
T1 construct: KDM6B and KDM6A plasmids were used as described previously; made in house; host or cells: Escherichia coli BL21 (DE3)
T1 sequence (O15550 whole entry): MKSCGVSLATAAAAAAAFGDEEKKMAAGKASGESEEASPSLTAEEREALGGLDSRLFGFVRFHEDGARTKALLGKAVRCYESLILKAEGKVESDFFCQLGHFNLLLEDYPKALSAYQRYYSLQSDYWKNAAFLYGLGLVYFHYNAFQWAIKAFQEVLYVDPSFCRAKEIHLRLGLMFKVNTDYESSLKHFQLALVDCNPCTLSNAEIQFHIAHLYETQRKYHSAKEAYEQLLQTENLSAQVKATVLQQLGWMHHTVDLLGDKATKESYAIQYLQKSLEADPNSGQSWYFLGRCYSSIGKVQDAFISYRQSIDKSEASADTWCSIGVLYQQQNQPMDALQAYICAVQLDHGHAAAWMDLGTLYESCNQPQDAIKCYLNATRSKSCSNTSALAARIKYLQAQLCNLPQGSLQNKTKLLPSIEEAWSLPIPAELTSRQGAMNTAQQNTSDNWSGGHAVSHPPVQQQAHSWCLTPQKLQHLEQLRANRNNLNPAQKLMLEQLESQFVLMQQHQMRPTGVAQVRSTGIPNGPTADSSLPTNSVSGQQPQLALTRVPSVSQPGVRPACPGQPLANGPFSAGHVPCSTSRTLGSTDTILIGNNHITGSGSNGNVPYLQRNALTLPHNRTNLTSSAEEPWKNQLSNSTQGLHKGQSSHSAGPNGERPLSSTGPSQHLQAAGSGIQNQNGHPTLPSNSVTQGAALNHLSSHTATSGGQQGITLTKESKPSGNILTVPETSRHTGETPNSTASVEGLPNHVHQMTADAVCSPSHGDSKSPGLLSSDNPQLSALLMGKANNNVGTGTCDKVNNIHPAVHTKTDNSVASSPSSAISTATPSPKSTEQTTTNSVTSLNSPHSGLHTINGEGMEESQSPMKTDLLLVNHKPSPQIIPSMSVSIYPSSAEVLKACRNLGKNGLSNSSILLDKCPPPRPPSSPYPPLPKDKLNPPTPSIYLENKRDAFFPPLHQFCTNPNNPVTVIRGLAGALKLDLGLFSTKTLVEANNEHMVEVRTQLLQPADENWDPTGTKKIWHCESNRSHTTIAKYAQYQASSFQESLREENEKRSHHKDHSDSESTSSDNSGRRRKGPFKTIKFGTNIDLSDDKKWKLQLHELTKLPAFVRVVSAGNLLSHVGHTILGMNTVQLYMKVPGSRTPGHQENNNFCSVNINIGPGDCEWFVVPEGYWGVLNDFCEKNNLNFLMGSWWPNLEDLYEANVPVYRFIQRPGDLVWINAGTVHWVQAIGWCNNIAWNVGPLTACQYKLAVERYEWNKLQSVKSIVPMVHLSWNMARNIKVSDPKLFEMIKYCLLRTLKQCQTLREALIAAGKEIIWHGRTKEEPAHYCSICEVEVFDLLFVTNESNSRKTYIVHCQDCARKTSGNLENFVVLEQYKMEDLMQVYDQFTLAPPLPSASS
Method: as §1, §2, §3

UTY(KDM6C) [3] = test: Demethylation of histone peptides by MALDI-TOF MS, UTY(KDM6C); type: biochemical, human; conditions: UTY(KDM6C) 818–1347, 1 h at 37 °C
Method: as §1, §3
With catalytically active UTY(KDM6C) in hand, we then investigated whether a longer UTY(KDM6C) construct (residues 818–1347, herein UTY(KDM6C)) can act as a KDM. UTY(KDM6C) was incubated for 1 h at 37 °C with histone peptide fragments corresponding to known mono-, di-, and tri- lysine methylation sites of histone 3 (at Lys^4, Lys^9, Lys^27, and Lys^36) and histone 4 (at Lys^20) (Table 3). Demethylation was assessed by a mass spectrometric (MS) assay with mass shifts of −14 and −28 Da, corresponding to mono- and didemethylation, respectively. […] The predominant product was H3K27Me2, resulting from a single demethylation; a smaller amount of H3K27Me1 was observed as a result of didemethylation (Fig. 3C). Demethylation was dependent on the presence of Fe(II)/2OG.

KDM6A [4] = target: T1, KDM6A; test: Demethylation of histone peptide by MALDI-TOF MS, KDM6A; type: biochemical; conditions: KDM6A positive control
Method: as §1, §3
(§4) With catalytically active UTY(KDM6C) in hand, we then investigated whether a longer UTY(KDM6C) construct (residues 818–1347, herein UTY(KDM6C)) can act as a KDM. UTY(KDM6C) was incubated for 1 h at 37 °C with histone peptide fragments corresponding to known mono-, di-, and tri- lysine methylation sites of histone 3 (at Lys^4, Lys^9, Lys^27, and Lys^36) and histone 4 (at Lys^20) (Table 3). Demethylation was assessed by a mass spectrometric (MS) assay with mass shifts of −14 and −28 Da, corresponding to mono- and didemethylation, respectively. […]

KDM6B = target: T2, KDM6B (Homo sapiens, UniProt O15054); test: Demethylation of histone peptide by MALDI-TOF MS, KDM6B; type: biochemical; conditions: KDM6B positive control
T2 construct: KDM6B and KDM6A plasmids were used as described previously; made in house; host or cells: Escherichia coli BL21 (DE3)
T2 sequence (O15054 whole entry): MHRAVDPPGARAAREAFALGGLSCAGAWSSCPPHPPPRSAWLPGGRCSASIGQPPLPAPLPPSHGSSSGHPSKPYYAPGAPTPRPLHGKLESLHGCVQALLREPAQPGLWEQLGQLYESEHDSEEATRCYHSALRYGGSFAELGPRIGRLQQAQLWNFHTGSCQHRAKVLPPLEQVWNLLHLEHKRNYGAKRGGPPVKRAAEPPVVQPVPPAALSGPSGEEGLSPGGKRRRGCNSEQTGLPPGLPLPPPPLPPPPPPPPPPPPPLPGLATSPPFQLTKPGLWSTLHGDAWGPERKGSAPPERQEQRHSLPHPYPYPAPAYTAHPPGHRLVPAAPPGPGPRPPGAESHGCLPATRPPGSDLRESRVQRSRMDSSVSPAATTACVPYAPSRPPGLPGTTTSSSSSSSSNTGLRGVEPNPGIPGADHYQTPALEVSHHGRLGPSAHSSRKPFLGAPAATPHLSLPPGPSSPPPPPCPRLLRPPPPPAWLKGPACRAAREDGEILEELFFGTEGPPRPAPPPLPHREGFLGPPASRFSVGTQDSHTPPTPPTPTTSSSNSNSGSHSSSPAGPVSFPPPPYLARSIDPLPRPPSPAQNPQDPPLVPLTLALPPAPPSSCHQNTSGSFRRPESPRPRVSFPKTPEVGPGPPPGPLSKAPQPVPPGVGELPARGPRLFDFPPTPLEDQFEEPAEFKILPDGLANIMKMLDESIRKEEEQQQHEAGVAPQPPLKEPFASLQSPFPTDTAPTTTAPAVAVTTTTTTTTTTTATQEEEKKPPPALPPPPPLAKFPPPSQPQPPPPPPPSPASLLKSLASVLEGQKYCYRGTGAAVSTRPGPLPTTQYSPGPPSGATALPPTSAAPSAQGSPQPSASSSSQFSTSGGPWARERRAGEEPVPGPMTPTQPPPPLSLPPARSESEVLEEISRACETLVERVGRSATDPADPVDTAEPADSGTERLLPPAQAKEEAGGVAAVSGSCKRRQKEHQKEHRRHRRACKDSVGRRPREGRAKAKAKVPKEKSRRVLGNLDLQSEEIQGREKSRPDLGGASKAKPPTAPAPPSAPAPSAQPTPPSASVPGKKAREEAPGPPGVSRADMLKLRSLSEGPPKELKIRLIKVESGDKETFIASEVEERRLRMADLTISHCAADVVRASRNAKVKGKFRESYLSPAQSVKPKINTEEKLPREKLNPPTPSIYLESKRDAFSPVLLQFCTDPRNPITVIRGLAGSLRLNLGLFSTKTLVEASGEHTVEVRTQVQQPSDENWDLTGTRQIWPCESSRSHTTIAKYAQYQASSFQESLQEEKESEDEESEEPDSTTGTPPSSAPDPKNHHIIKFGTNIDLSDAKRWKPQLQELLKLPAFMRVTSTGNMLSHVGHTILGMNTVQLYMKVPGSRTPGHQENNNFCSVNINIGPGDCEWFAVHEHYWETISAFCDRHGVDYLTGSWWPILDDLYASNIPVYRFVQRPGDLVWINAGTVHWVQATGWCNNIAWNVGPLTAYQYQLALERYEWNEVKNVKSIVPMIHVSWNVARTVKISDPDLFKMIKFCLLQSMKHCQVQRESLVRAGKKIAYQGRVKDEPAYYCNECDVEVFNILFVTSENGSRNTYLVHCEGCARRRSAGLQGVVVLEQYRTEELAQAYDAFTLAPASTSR
Method: as §1, §3, §4

KDM6 = test: Demethylation of histone peptide by 1H NMR, KDM6; type: biochemical, human; conditions: KDM6 catalyzed
Excerpt: The total echo time was 48 ms.

[5] = tested on: partially phosphorylated UTY(KDM6C); test: 2OG turnover by 1H NMR, partially phosphorylated UTY(KDM6C); type: biochemical, human; conditions: 10 μM, in 28 min
[6] = tested on: UTY(KDM6C) dephosphorylated in vitro using λ-phosphatase; test: 2OG turnover by 1H NMR, dephosphorylated UTY(KDM6C); type: biochemical, human; conditions: UTY(KDM6C) dephosphorylated with λ-phosphatase, 10 μM, in 28 min
[7] = tested on: H3K27Me3 levels in HeLa cells; test: Immunofluorescence of global H3K27Me3 levels on overexpression in HeLa cells; type: cell-based; conditions: exogenous overexpression in HeLa cells
Method: For cell-based experiments, HEK 293T and HeLa cells were cultured at 37 °C and 5% CO2 in DMEM (Lonza) supplemented with 10% fetal bovine serum (FBS) (Invitrogen) and 1% Glutamax (Invitrogen). For microscopy, HeLa cells were seeded into 96-well clear bottom optical grade plates (BD Biosciences) at 8000 cells/well and allowed to settle overnight. Transfections were carried out the next day. For each well, 0.1 μg of plasmid and 0.25 μl of Lipofectamine 2000 (Invitrogen) were each incubated in 25 μl of Opti-MEM (Invitrogen) for 5 min at room temperature. The two solutions were then mixed gently but thoroughly and incubated for 20 min at room temperature. The mixture was added to the cells in 50 μl of fresh medium. Four hours later, the medium was changed, and the cells were incubated for a further 24 h before fixation. Cells were fixed in 4% (v/v) aqueous formaldehyde for 20 min, permeabilized in 0.5% Triton X-100 in phosphate-buffered saline (PBS) for 8 min, and blocked in 3% (w/v) FBS in PBS for 1 h with a PBS wash between each step. The primary antibodies were then added to the cells in blocking solution. […] Luciferase activity was measured using the Promega Dual-Luciferase Reporter Assay System on a Promega GloMax 20/20 luminometer. Readings were normalized to a Renilla luciferase control that was co-transfected with all samples. […]

## O=C(O)CCNc1cc(N2CCc3ccccc3CC2)nc(-c2ccccn2)n1 [GSK-J1]
UTY(KDM6C) [1]
  potency rank among nine inhibitors: most potent inhibitor
UTY(KDM6C) [1]; H3K27Me3 peptide, MALDI MS
  inhibition of demethylation: inhibition of UTY(KDM6C) activity by GSK-J1 was observed
KDM6A [2]
  potency rank among nine inhibitors: most potent inhibitor

## GGKAPRKQLATKAARKMe3SAPATGG [23-residue histone peptide containing H3K27Me3 (histone 3, 12–34)]
UTY(KDM6C) [3]
  demethylation: catalyzes the demethylation
UTY(KDM6C) [3]; didemethylation, smaller amount
  minor demethylation product: H3K27Me1
UTY(KDM6C) [3]; listed as H3K27Me3 peptide (histone 3, 12–34)
  demethylation: demethylation was observed
UTY(KDM6C) [3]; single demethylation
  predominant demethylation product: H3K27Me2
KDM6A [4]
  demethylation: demethylation was observed
KDM6B
  demethylation: demethylation was observed

## GGKAPRKQLATKAARKMe3SAPATGGV [24-residue histone peptide containing H3K27Me3]
KDM6
  demethylation: KDM6 catalyzed demethylation

## O=C(O)CCC(=O)C(=O)O [2OG, 2-oxoglutarate]
[5]
  succinate produced: 7 ± 0.5 nmol
[6]
  succinate produced: 7 ± 0.5 nmol

## FL WT KDM6B: full-length wild type KDM6B, positive control
[7]
  change in global H3K27Me3 level: a decrease was observed
